Several values for one entry are separate records, joined by “and”; a condition that tells them apart may be missing. Equal values may be shown once. Values belong to the molecule of their own block, whether it stands above or below them.
Assay: solvent given as SMILES

emission maximum (in CCO): 526 nm
SMILES: CCOC(=O)c1cc(C(=O)OCC)c2cccc(OC)c2n1

emission maximum (in C1CCCCC1): 430 nm
SMILES: N#C/C(=C\c1ccccc1)c1nc2ccccc2s1

emission maximum (in CC#N): 505 nm
SMILES: COc1ccccc1-c1nc2c([nH]1)C1=CC(=O)S[C@]1(C)[C@@]1(C)SC(=O)C=C21

emission maximum (in ClCCl): 397.56 nm
SMILES: C=CCN(CC=C)c1ccc(-c2cc(-c3ccc(N(CC=C)CC=C)cc3)cc(-c3ccc(N(CC=C)CC=C)cc3)c2)cc1

emission maximum (in C1CCCCC1): 418 nm | emission maximum (in CC#N): 433 nm | emission maximum (in CO): 429 nm | emission maximum (in ClCCl): 431 nm
SMILES: COc1c2ccccc2c(OC)c2c1c1cccc(OC)c1n2C

emission maximum (in CC#N): 557 nm
SMILES: COC(=O)/C=C/c1sc(-c2ccc(N(C)C)s2)c(-c2ccsc2)c1N

emission maximum (in O): 565 nm
SMILES: C/C=C/C=C/C1=NC(=C\c2ccc([O-])cc2)/C(=O)N1C

emission maximum (in C1CCCCC1): 421 nm | emission maximum (in CC#N): 431 nm | emission maximum (in CO): 426 nm | emission maximum (in ClCCl): 428 nm
SMILES: COc1c2ccccc2c(OC)c2c1c1cc(C)ccc1n2C

emission maximum (in ClCCl): 441 nm
SMILES: CC(C)(C)NC(=O)c1ccc(-c2cc3ccccc3o2)c2ccc3c4ccccc4c4ccccc4c3c12

emission maximum (in CC#N): 528 nm
SMILES: CN(C)c1ccc(-c2nc3nc4ccccc4nc3n2-c2ccccc2)cc1

emission maximum (in CO): 775 nm | emission maximum (in O): 769 nm
SMILES: CC[N+]1=C(/C=C/C=C/C=C/C=C2/N(CCCCCC(=O)O)c3ccccc3C2(C)C)C(C)(C)c2cc(S(=O)(=O)[O-])ccc21

emission maximum (in C1CCCCC1): 446 nm | emission maximum (in CC#N): 538 nm | emission maximum (in CN(C)C=O): 542 nm | emission maximum (in CO): 560 nm | emission maximum (in CS(C)=O): 549 nm | emission maximum (in c1ccccc1): 464 nm
SMILES: COc1cc(/C=C/C(=O)CC(=O)/C=C/c2ccc(O)c(OC)c2)ccc1O

emission maximum (in C1CCCCC1): 566 nm | emission maximum (in CC1CCCCC1): 566.5 nm | emission maximum (in CC#N): 593 nm | emission maximum (in CCC(C)CC): 566 nm | emission maximum (in CCCCCC): 566.2 nm | emission maximum (in CCOC(C)=O): 585 nm
SMILES: CN(C)c1cccc2c1C(=O)c1ccccc1C2=O

emission maximum (in ClCCl): 472 nm
SMILES: CN(C)c1ccc(/C=C/c2ncccn2)cc1

emission maximum (in c1ccccc1): 608 nm
SMILES: CN(C)c1ccc2ccc3oc(=O)c(-c4ccccc4)nc3c2c1

emission maximum (in CO): 700 nm | emission maximum (in ClC(Cl)Cl): 696 nm
SMILES: Cc1nc2c(ccc3c2sc(/C=C/C=C/c2ccc(N(C)C)cc2)[n+]3C)s1

emission maximum (in C1CCCCC1): 596.5 nm | emission maximum (in CCOC(C)=O): 597 nm | emission maximum (in CO): 595 nm
SMILES: COC(=O)[C@H](Cc1ccc2oc3c(c2c1)=CC1=C(c2ccc(OC)cc2)c2cc4c5cc(C[C@H](NC(=O)OC(C)(C)C)C(=O)OC)ccc5oc4n2[B-](F)(F)[N+]=31)NC(=O)OC(C)(C)C

emission maximum (in C1CCOC1): 581 nm
SMILES: CC(C)(C)c1ccc(C2=C(c3ccc(N4c5ccccc5C(C)(C)c5ccccc54)cc3)S(=O)(=O)c3c2sc(-c2ccc(N4c5ccccc5C(C)(C)c5ccccc54)cc2)c3-c2ccc(C(C)(C)C)cc2)cc1

emission maximum (in CC#N): 452 nm
SMILES: C[C@@]12SC(Cl)=CC1=c1nc(-c3ccccc3)[nH]c1=C1C=C(Cl)S[C@]12C

emission maximum (in CC#N): 581 nm | emission maximum (in CCO): 571 nm | emission maximum (in CN(C)C=O): 585 nm | emission maximum (in O): 581 nm
SMILES: CCOC(=O)c1ccccc1-c1c2ccc(=[N+](CC)CC)cc-2oc2cc(N(CC)CC)ccc12

emission maximum (in C1CCOC1): 366 nm
SMILES: COC(=O)c1ccc(-c2ccc3c(c2)C(=O)c2cc(-c4ccc(C(=O)OC)cc4)ccc2-3)cc1

emission maximum (in O): 397 nm
SMILES: CCn1c(-c2ccc(-c3ccc(-c4ccc(-c5n(CC)c6cc(C)ccc6[n+]5CC)cc4)cc3)cc2)[n+](CC)c2ccc(C)cc21

emission maximum (in ClCCl): 401 nm
SMILES: CCOC(=O)c1c(-c2cc3ccccc3oc2=O)nn(-c2cccc(F)c2)c1C(=O)OCC

emission maximum (in CC#N): 358 nm | emission maximum (in CO): 358 nm | emission maximum (in O): 360 nm
SMILES: CNCCCC1c2ccccc2C=Cc2ccccc21

emission maximum (in CC#N): 530 nm | emission maximum (in CO): 514 nm | emission maximum (in ClCCl): 484 nm
SMILES: CCCCCCN(CCCCCC)c1ccc(C#Cc2ccc(C#N)cc2)cc1

Second part, the molecule before the results:

SMILES: CCn1c2ccccc2c2cc(/C=C/c3cccc(/C=C/c4ccc5c(c4)c4ccccc4n5CC)[n+]3CCCS(=O)(=O)[O-])ccc21
emission maximum (in C1CCOC1): 581 nm | emission maximum (in CC#N): 579 nm | emission maximum (in CC(C)=O): 578 nm | emission maximum (in Cc1ccccc1): 598 nm

SMILES: COc1nc(Nc2ccc3c4c(cccc24)C(=O)c2ccccc2-3)nc(OC)n1
emission maximum (in CC#N): 554.02 nm | emission maximum (in CC(C)=O): 533.9 nm | emission maximum (in CC(C)O): 576.04 nm | emission maximum (in CCCCOCCCC): 516 nm | emission maximum (in CCOC(C)=O): 523.01 nm | emission maximum (in CCOCC): 520.02 nm | emission maximum (in CO): 586.85 nm | emission maximum (in Cc1ccccc1): 521.92 nm | emission maximum (in Clc1ccccc1): 526.87 nm | emission maximum (in N#Cc1ccccc1): 535.91 nm | emission maximum (in O=C1CCCCC1): 531.91 nm

SMILES: N#Cc1ncc(-c2c3ccccc3c(-c3cnc(C#N)nc3)c3ccccc23)cn1
emission maximum (in CCO): 520 nm | emission maximum (in ClCCl): 464 nm

SMILES: CN(C)CCNc1ccc([N+](=O)[O-])cc1[N+](=O)[O-]
emission maximum (in C1CCCCC1): 368 nm | emission maximum (in C1CCOC1): 389 nm | emission maximum (in C1COCCO1): 385 nm | emission maximum (in CC#N): 399 nm | emission maximum (in CC(C)=O): 401 nm | emission maximum (in CCCCCC): 363 nm | emission maximum (in CCO): 394 nm | emission maximum (in CCOC(C)=O): 384 nm | emission maximum (in CN(C)C=O): 406 nm | emission maximum (in CO): 389 nm | emission maximum (in CS(C)=O): 417 nm | emission maximum (in Cc1ccccc1): 385 nm | emission maximum (in ClC(Cl)Cl): 389 nm | emission maximum (in ClCCl): 393 nm

SMILES: C(=C\c1ccc(N(c2ccc(/C=C/c3ccc(N(c4ccccc4)c4ccccc4)cc3)cc2)c2ccc(-c3nc4ccccc4nc3-c3ccc(N(c4ccc(/C=C/c5ccc(N(c6ccccc6)c6ccccc6)cc5)cc4)c4ccc(/C=C/c5ccc(N(c6ccccc6)c6ccccc6)cc5)cc4)cc3)cc2)cc1)/c1ccc(N(c2ccccc2)c2ccccc2)cc1
emission maximum (in C1CCOC1): 532 nm | emission maximum (in Cc1ccccc1): 521 nm

SMILES: CC1(C)c2ccccc2N(c2ccc(B3c4ccccc4Oc4ccccc43)cc2)c2ccccc21
emission maximum (in Cc1ccccc1): 472 nm

SMILES: CCn1c2ccccc2c2c3nsnc3c3c4ccccc4n(CC)c3c21
emission maximum (in CN(C)C=O): 500 nm | emission maximum (in Cc1ccccc1): 470 nm | emission maximum (in ClCCl): 497 nm

SMILES: COc1ccc(/C=C/C2=[O+][B-](F)(F)OC(/C=C/c3ccc(OC)cc3)=C2c2ccc(OC)cc2)cc1
emission maximum (in ClCCl): 571 nm

SMILES: CCCCOc1c(C#N)cc2cc(C#N)c(OCCCC)c3c4c(OCCCC)c(C#N)cc5cc(C#N)c(OCCCC)c(c1c23)c54
emission maximum (in ClCCl): 514 nm

SMILES: CC(C)[Si](C#Cc1cc2c3c(c1)c(=C1c4ccccc4Sc4ccccc41)c1cc(C#C[Si](C(C)C)(C(C)C)C(C)C)cc4c1N3c1c(cc(C#C[Si](C(C)C)(C(C)C)C(C)C)cc1c4=C1c3ccccc3Sc3ccccc31)c2=C1c2ccccc2Sc2ccccc21)(C(C)C)C(C)C
emission maximum (in ClCCl): 511 nm

SMILES: C=C[Si](c1c2ccccc2cc2ccccc12)(c1c2ccccc2cc2ccccc12)c1c2ccccc2cc2ccccc12
emission maximum (in ClC(Cl)Cl): 437 nm

SMILES: COc1ccc(N(c2ccc(OC)cc2)c2ccc(-c3ccc4c(c3)C(=O)c3ccccc3C4=O)cc2)cc1
emission maximum (in CCCCCC): 571 nm | emission maximum (in CCOCC): 720 nm | emission maximum (in Cc1ccccc1): 679 nm | emission maximum (in ClC(Cl)(Cl)Cl): 646 nm

SMILES: N#CSC1=CC2=C(c3ccccc3)c3ccc(N4CCOCC4)n3[B-](F)(F)[N+]2=C1N1CCOCC1
emission maximum (in CC#N): 605 nm | emission maximum (in CCCCCC): 599 nm | emission maximum (in CCOC(C)=O): 604 nm | emission maximum (in CO): 599 nm | emission maximum (in ClCCl): 603 nm

SMILES: COC(=O)C([NH3+])Cc1ccc2oc(-c3ccncc3)nc2c1 (stereo not given)
emission maximum (in CC1CCCCC1): 356.11 nm | emission maximum (in CC#N): 367.92 nm | emission maximum (in CO): 379.88 nm | emission maximum (in O): 402.82 nm

SMILES: CC(C)[Si](C#Cc1c2cc3ccccc3cc2c(C#C[Si](C(C)C)(C(C)C)C(C)C)c2nc3c(nc12)C1c2ccccc2C3c2ccccc21)(C(C)C)C(C)C
emission maximum (in CCCCCC): 548 nm

SMILES: COc1cc(OC)c2c(c1)c1cc3oc(=O)cc(C)c3cc1c1cc(OC)cc(OC)c12
emission maximum (in ClC(Cl)Cl): 538 nm

SMILES: CC1=C(c2ccc(N(C)C)cc2)C(C)=[N+]2C1=C(c1c(-c3ccccn3)nc3ccccn13)c1c(C)c(-c3ccc(N(C)C)cc3)c(C)n1[B-]2(F)F
emission maximum (in ClCCl): 722 nm

SMILES: COc1cc(N(c2ccccc2)c2ccccc2)ccc1C=C(C#N)C#N
emission maximum (in C1COCCO1): 548 nm | emission maximum (in CC#N): 581 nm | emission maximum (in CC(C)=O): 587 nm | emission maximum (in CCOC(C)=O): 573 nm | emission maximum (in CN(C)C=O): 558 nm | emission maximum (in CO): 562 nm | emission maximum (in Cc1ccccc1): 525 nm | emission maximum (in ClC(Cl)Cl): 567 nm | emission maximum (in ClCCl): 590 nm

SMILES: c1ccc(-c2nc(-c3ccc(-c4nc(-c5ccccc5)c(-c5ccccc5)[nH]4)cc3)[nH]c2-c2ccccc2)cc1
emission maximum (in C1CCOC1): 421 nm | emission maximum (in CC#N): 423.5 nm and 424 nm | emission maximum (in CC(=O)O): 482 nm | emission maximum (in CC(C)=O): 420 nm | emission maximum (in CCOC(C)=O): 420 nm | emission maximum (in CCOCC): 419 nm | emission maximum (in CO): 417 nm | emission maximum (in CS(C)=O): 410 nm | emission maximum (in ClC(Cl)Cl): 437 nm

SMILES: CC(C)Nc1cc2oc3cc(NC(C)C)c(F)cc3c(=O)c2cc1F
emission maximum (in CCO): 422 nm

SMILES: N#Cc1c(/C=C/c2ccc(N(c3ccccc3)c3ccccc3)cc2)cc(-c2ccccc2)cc1N1CCCCC1
emission maximum (in CS(C)=O): 520 nm

SMILES: COc1ccc2c(c1)c1cc(OC)ccc1n2-c1cccc(-n2c3ccc(OC)cc3c3cc(OC)ccc32)c1C#N
emission maximum (in Cc1ccccc1): 460 nm | emission maximum (in O=P(c1ccccc1)(c1ccccc1)c1ccccc1Oc1ccccc1P(=O)(c1ccccc1)c1ccccc1): 462 nm

SMILES: CCCC1=Cc2nc1ccc1[nH]c(cc1CCC)c1nc(c(OC(C)=O)cc3[nH]c2cc3CCC)C(CCC)=C1
emission maximum (in Cc1ccccc1): 650 nm

SMILES: CC1(C)c2ccccc2N(c2ccc(-c3ncccn3)cc2)c2ccccc21
emission maximum (in Cc1ccccc1): 448 nm | emission maximum (in O=P(c1ccccc1)(c1ccccc1)c1ccc2oc3ccc(P(=O)(c4ccccc4)c4ccccc4)cc3c2c1): 457 nm

SMILES: Cc1cc(C)c([B-]2(c3c(C)cc(C)cc3C)[O+]=P(c3ccccc3)(c3ccccc3)c3cc(-c4ccc(C(F)(F)F)cc4)sc3-c3sc(-c4ccc(C(F)(F)F)cc4)cc32)c(C)c1
emission maximum (in C1CCOC1): 468 nm

Source: the Deep4Chem optical property database
